Article PMC5916808 (Journal of medicinal chemistry, 2017)
pEC50: −log10 of the molar value. Values joined by “and” are separate entries in the source; they are usually repeats but may differ in a detail not shown here. Equal values may be shown once.

Legend:
[1] = test system: GluN1/GluN2B receptors; conditions: noncompetitive inhibitor; cited from earlier work
[2] = target: T1, GluN1/GluN2C NMDA receptors (Rattus norvegicus, UniProt Q00961); assay type: cell-based
[3] = target: T2, GluN1/GluN2D NMDA receptors (Rattus norvegicus, UniProt Q62645); assay type: cell-based
[4] = target: GluN1/GluN2B NMDA receptors (Rattus norvegicus, UniProt Q00960); assay type: cell-based; conditions: for fold increase in potency at GluN2B, thioamide compared to amide: 138 vs 2, 142 vs 97
[5] = Pharmacokinetics and brain penetration after IP dosing, LC/MS/MS; assay type: in vivo, C57Bl/6 mice
[6] = target: GluK2 (Rattus norvegicus, UniProt P42260); assay: Two-electrode voltage clamp, GluK2 homomeric receptors in Xenopus oocytes; assay type: cell-based; conditions: 30 μM compound co-applied with 100 μM glutamate and 30 μM glycine, n=9
[7] = test system: GluN1/GluN2A, GluN1/GluN2B, GluN1/GluN2C, and GluN1/GluN2D NMDA receptors; assay: Two-electrode voltage clamp, activity profile across GluN2 subunits; assay type: cell-based, rat; conditions: potentiation of response to maximal glutamate and glycine
[8] = target: T2, GluN1/GluN2D NMDA receptors; conditions: 30 μM; previously published data; cited from earlier work
[9] = target: T1, GluN1/GluN2C NMDA receptors; conditions: 30 μM; previously published data; cited from earlier work
[10] = target: GluN1/GluN2D NMDA receptors (Rattus norvegicus, UniProt P35439+Q62645); assay type: cell-based
[11] = Solubility of test compound in oocyte recording solution; assay type: physicochemical; conditions: aqueous buffer
[12] = test system: AMPA or kainate receptors; conditions: cited from earlier work
[13] = cited from earlier work
[14] = ref Jensen, Egebjerg, Bundgaard, unpublished data; cited from earlier work
[15] = 30 μM co-applied with either 30 μM glutamate or 10 μM glycine
[16] = percentage of the initial glutamate (100 μM) and glycine (30 μM) current

T2 sequence (Q62645 28-1323, other chains not shown): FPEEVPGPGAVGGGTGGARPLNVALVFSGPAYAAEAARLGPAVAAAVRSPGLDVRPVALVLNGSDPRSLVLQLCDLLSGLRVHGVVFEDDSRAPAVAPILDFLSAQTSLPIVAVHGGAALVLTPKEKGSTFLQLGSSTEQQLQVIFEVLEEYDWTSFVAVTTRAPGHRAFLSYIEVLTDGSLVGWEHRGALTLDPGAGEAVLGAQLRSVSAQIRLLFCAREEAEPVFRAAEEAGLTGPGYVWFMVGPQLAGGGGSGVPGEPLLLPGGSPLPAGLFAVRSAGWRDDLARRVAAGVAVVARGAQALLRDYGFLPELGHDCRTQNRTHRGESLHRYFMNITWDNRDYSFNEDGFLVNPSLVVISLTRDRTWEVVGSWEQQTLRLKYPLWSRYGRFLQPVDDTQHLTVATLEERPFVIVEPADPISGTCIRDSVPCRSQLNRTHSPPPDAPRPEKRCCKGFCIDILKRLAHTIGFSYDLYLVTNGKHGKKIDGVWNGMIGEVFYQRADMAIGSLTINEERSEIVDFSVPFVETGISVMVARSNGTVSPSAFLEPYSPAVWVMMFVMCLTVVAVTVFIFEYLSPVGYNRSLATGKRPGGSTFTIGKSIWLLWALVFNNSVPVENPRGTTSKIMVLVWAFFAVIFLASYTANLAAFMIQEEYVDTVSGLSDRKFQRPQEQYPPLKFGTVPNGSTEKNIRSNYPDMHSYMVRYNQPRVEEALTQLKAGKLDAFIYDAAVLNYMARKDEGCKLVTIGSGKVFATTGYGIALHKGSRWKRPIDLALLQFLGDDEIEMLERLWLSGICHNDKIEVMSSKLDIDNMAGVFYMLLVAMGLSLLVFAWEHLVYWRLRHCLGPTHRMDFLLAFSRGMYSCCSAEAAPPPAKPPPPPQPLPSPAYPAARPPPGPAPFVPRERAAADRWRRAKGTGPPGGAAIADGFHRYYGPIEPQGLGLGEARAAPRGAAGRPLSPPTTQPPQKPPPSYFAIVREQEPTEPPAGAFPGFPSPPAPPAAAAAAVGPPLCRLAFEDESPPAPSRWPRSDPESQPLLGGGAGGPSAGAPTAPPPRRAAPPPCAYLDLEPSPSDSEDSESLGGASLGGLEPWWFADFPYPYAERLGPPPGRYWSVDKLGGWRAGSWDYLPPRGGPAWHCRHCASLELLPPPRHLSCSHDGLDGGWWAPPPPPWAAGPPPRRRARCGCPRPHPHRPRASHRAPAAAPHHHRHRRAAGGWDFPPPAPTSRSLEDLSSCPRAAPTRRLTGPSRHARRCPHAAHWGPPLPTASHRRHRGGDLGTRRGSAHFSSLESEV
Sequence of GluN1/GluN2B NMDA receptors (Q00960 27-1482, other chains not shown): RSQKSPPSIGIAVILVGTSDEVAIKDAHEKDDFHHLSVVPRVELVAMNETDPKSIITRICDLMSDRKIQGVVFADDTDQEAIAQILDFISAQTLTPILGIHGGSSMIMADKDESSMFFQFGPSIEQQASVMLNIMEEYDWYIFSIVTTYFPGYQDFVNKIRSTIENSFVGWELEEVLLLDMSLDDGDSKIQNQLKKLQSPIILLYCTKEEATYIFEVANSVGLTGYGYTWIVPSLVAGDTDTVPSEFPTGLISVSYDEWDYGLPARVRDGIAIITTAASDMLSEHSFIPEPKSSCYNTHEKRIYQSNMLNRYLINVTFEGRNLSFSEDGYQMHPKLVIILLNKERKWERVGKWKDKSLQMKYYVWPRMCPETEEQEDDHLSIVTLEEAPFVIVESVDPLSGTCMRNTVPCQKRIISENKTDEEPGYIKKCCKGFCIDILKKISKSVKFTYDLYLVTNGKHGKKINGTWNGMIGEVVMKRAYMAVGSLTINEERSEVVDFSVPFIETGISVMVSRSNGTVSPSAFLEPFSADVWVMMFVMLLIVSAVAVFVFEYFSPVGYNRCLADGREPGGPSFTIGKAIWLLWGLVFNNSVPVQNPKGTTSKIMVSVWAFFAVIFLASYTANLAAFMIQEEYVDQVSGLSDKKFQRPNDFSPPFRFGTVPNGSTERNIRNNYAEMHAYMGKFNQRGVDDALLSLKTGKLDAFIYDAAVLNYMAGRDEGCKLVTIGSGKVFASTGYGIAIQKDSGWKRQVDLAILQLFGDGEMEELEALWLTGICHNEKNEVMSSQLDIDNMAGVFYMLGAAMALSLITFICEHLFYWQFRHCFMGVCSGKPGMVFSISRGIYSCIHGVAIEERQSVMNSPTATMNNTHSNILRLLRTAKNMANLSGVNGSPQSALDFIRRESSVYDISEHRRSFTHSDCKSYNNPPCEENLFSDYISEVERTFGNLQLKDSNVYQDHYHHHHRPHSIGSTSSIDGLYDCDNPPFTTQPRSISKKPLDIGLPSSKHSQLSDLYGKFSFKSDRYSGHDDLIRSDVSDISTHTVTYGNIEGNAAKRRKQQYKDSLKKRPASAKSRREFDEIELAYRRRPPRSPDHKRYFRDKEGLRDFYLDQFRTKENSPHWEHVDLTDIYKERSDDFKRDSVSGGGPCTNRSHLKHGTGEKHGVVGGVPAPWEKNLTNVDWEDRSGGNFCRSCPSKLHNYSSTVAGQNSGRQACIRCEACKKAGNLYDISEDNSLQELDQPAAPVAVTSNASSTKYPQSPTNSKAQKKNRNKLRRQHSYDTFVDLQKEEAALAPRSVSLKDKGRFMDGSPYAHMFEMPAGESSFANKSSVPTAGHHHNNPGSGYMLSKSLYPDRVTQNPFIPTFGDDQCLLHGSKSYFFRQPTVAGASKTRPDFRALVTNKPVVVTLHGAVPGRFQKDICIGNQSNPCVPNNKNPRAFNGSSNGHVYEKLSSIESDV
T1 sequence (Q00961 20-1237, other chains not shown): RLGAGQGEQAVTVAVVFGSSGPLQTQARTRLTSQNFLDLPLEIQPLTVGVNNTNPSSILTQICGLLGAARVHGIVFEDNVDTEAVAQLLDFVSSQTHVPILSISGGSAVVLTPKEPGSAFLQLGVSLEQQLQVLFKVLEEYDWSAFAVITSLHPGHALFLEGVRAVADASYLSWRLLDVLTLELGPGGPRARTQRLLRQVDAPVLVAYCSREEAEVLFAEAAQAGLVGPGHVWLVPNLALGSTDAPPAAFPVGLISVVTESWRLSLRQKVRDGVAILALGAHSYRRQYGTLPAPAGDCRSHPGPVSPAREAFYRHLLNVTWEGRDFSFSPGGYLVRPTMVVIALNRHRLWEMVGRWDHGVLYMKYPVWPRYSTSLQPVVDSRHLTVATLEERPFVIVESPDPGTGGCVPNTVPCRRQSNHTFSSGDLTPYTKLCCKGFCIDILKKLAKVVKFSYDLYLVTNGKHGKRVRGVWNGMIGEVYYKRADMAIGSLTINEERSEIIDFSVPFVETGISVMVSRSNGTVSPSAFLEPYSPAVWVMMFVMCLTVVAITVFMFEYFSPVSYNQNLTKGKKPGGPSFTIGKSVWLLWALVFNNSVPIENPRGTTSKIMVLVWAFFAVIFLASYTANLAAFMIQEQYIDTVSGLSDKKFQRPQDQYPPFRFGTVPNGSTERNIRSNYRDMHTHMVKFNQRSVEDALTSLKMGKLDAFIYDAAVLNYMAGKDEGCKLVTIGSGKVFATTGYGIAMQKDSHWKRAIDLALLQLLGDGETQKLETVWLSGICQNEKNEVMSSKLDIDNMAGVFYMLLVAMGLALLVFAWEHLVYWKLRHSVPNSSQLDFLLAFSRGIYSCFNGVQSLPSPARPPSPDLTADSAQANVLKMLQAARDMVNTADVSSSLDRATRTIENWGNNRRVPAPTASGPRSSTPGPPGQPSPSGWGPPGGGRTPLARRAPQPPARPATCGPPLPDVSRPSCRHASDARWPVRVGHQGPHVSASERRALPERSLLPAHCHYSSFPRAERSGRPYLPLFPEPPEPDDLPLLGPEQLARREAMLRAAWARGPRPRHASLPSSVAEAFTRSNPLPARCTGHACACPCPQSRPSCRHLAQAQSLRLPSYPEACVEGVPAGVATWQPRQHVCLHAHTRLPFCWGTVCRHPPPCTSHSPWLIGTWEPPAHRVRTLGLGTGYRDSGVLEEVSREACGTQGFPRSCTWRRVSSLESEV
Sequence of GluN1/GluN2D NMDA receptors (Rattus norvegicus, UniProt P35439+Q62645) (Q62645 28-1323, other chains not shown): as the sequence (Q62645 28-1323, other chains not shown) above
Sequence of GluK2 (P42260 32-908): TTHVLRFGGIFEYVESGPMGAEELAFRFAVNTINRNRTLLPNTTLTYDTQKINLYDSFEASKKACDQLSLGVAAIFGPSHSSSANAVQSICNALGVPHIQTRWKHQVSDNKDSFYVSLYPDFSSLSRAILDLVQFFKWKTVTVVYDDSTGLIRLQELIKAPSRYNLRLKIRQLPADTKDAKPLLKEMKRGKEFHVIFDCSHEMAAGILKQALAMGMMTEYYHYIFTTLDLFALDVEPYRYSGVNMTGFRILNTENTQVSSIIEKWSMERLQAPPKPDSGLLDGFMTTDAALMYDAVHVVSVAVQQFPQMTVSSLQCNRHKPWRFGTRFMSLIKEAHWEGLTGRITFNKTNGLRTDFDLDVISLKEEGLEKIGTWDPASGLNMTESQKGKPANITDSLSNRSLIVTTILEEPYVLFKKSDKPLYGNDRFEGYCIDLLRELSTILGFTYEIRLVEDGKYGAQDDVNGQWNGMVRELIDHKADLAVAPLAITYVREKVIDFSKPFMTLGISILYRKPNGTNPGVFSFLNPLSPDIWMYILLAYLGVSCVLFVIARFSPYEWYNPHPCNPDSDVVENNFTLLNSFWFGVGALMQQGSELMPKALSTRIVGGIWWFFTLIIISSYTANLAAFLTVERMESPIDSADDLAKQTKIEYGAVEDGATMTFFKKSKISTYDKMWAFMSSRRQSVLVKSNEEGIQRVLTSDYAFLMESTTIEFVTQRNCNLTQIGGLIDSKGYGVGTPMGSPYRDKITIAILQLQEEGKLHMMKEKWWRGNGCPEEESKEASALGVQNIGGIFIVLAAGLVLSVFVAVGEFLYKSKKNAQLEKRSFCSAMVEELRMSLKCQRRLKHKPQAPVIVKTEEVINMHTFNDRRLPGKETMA

SMILES: CC(C(O)c1ccc(O)cc1)N1CCC(Cc2ccccc2)CC1 (stereo not shown) [ifenprodil]
- fold more potent at GluN2B-containing receptors compared to GluN2A, GluN2C, or GluN2D [1]: > 100 fold

SMILES: COc1ccc(OCC2c3ccc(OC(C)C)cc3CCN2C(=O)c2cccc(Cl)c2)cc1 (stereo not shown) [Compound 2, (3-Chlorophenyl)(6-isopropoxy-1-((4-methoxyphenoxy)methyl)-3,4-dihydroisoquinolin-2(1H)-yl)methanone]
- agonist activity at GluN1/GluN2C [2, 15]: no agonist activity
- agonist activity at GluN1/GluN2D [3, 15]: no agonist activity
- agonist activity at GluN1/GluN2B [4, 15]: no agonist activity
- brain concentration ([5]; 10 mg/kg IP, at 15 and 30 min): 303 ng/mL
- peak plasma concentration ([5]; 10 mg/kg IP, at 2 hours, n=3 mice): 789 ng/mL and 1.7 μM
- behavioral observations post-dosing ([5]; 10 mg/kg i.p.): No behavioral abnormalities were observed
- concentration at 4 h ([5]; C57Bl/6, mouse, brain, intraperitoneal, 10 mg/kg): 169 ng/mL
- Tmax ([5]; C57Bl/6, mouse, plasma, ip, 10 mg/kg): 2 h
- response as % of the control response to glutamate alone, GluK2 [6]: 96+9%

SMILES: CCOc1ccc(OCC2c3ccc(OC(C)C)cc3CCN2C(=O)c2ccccc2F)cc1 (stereo not shown) [Compound 102, (1-((4-Ethoxyphenoxy)methyl)-6-isopropoxy-3,4-dihydroisoquinolin-2(1H)-yl)(2-fluorophenyl)methanone]
- activity / subunit selectivity in words [7]: complete loss of activity

SMILES: CCOc1ccc(OCC2c3ccc(OC(C)C)cc3CCN2C(=O)c2ccccc2Cl)cc1 (stereo not shown) [Compound 103, (2-Chlorophenyl)(1-((4-ethoxyphenoxy)methyl)-6-isopropoxy-3,4-dihydroisoquinolin-2(1H)-yl)methanone]
- activity / subunit selectivity in words [7]: complete loss of activity

SMILES: CCOc1ccc(OCC2c3ccc(OC(C)C)cc3CCN2C(=O)c2cccc(F)c2)cc1 (stereo not shown) [Compound 97, (1-((4-Ethoxyphenoxy)methyl)-6-isopropoxy-3,4-dihydroisoquinolin-2(1H)-yl)(3-fluorophenyl)methanone]
- activity / subunit selectivity in words [7]: active at only GluN2B

SMILES: CCOc1ccc(OCC2c3ccc(OC(C)C)cc3CCN2C(=O)c2ccc(Cl)cc2)cc1 (stereo not shown) [Compound 105, (4-Chlorophenyl)(1-((4-ethoxyphenoxy)methyl)-6-isopropoxy-3,4-dihydroisoquinolin-2(1H)-yl)methanone]
- activity / subunit selectivity in words [7]: complete loss of activity

SMILES: CCOc1ccc(OCC2c3ccc(OC(C)C)cc3CCN2C(=O)c2ccc(F)cc2)cc1 (stereo not shown) [Compound 104, (1-((4-Ethoxyphenoxy)methyl)-6-isopropoxy-3,4-dihydroisoquinolin-2(1H)-yl)(4-fluorophenyl)methanone]
- activity / subunit selectivity in words [7]: complete loss of activity

SMILES: CCOc1ccc(OC[C@H]2c3ccc(OC(C)C)cc3CCN2C(=S)c2cccc(F)c2)cc1 [R-(+)-142, (R)-(1-((4-Ethoxyphenoxy)methyl)-6-isopropoxy-3,4-dihydroisoquinolin-2(1H)-yl)(3-fluorophenyl)methanethione]
- activity / subunit selectivity in words [7]: no detectable potentiation of any NMDA receptor subunit combinations

SMILES: COc1ccccc1OCC1c2ccc(OC(C)C)cc2CCN1C(=O)c1cccc(Cl)c1 (stereo not shown) [Compound 111, (3-Chlorophenyl)(6-isopropoxy-1-((2-methoxyphenoxy)methyl)-3,4-dihydroisoquinolin-2(1H)-yl)methanone]
- activity / subunit selectivity in words [7]: all activity was lost

SMILES: COc1ccc(OCC2c3ccc(OC)cc3CCN2C(=O)c2cccc(Cl)c2)cc1 (stereo not shown) [Compound 86]
- I30μM / Icontrol (mean ± SEM, %) GluN2D [8]: 215 ± 19%
- I30μM / Icontrol (mean ± SEM, %) GluN2C [9]: 213 ± 13%

SMILES: COc1ccc(OCC2c3ccc(OC(C)C)cc3CCN2C(=O)c2cccc(F)c2)cc1 (stereo not shown) [Compound 114, (3-Fluorophenyl)(6-isopropoxy-1-((4-methoxyphenoxy)methyl)-3,4-dihydroisoquinolin-2(1H)-yl)methanone]
- pEC50 [10]: 4.96
- fitted maximum response GluN2D [3, 16]: 493%
- fitted maximum response GluN2B [4, 16]: 391%

SMILES: CCOc1ccc(OCC2c3ccc(OC(C)C)cc3CCN2C(=O)c2cccc(OC)c2)cc1 (stereo not shown) [Compound 101, (1-((4-Ethoxyphenoxy)methyl)-6-isopropoxy-3,4-dihydroisoquinolin-2(1H)-yl)(3-methoxyphenyl)methanone]
- activity / subunit selectivity in words [7]: inactive

SMILES: COc1ccc(OCC2c3ccc(OC(C)C)cc3CCN2C(=S)c2cccc(Cl)c2)cc1 (stereo not shown) [Compound 138, (3-Chlorophenyl)(6-isopropoxy-1-((4-methoxyphenoxy)methyl)-3,4-dihydroisoquinolin-2(1H)-yl)methanethione]
- fold increase in potency at GluN2C, thioamide compared to amide ([2]; 138 vs 2): ~4 fold
- fold increase in potency at GluN2D, thioamide compared to amide ([3]; 138 vs 2): ~10 fold
- fold increase in potency at GluN2B, thioamide compared to amide [4]: ~10 fold

SMILES: CCOc1ccc(OCC2c3ccc(OC(C)C)cc3CCN2C(=O)c2cccc(-c3ccccc3)c2)cc1 (stereo not shown) [Compound 99, Biphenyl-3-yl(1-((4-ethoxyphenoxy)methyl)-6-isopropoxy-3,4-dihydroisoquinolin-2(1H)-yl)methanone]
- activity / subunit selectivity in words [7]: inactive
- solubility [11]: < 30 µM

SMILES: COc1ccc(OCC2c3cc(OC)c(OC)cc3CCN2C(=O)c2cccc(Cl)c2)cc1 (stereo not shown) [CIQ]
- effect on AMPA or kainate receptors [12]: no effect on AMPA or kainate receptors
- brain penetration [13]: brain penetrant
- protein binding [14]: high protein binding

SMILES: CCOc1ccc(OCC2c3ccc(OC(C)C)cc3CCN2C(=S)c2cccc(F)c2)cc1 (stereo not shown) [Compound 142, (1-((4-Ethoxyphenoxy)methyl)-6-isopropoxy-3,4-dihydroisoquinolin-2(1H)-yl)(3-fluorophenyl)methanethione]
- fold increase in potency at GluN2B, thioamide compared to amide [4]: 13 fold

SMILES: CCOc1ccc(OCC2c3ccc(OC(C)C)cc3CCN2C(=O)c2ccc(F)c(F)c2)cc1 (stereo not shown) [Compound 106, (3,4-Difluorophenyl)(1-((4-ethoxyphenoxy)methyl)-6-isopropoxy-3,4-dihydroisoquinolin-2(1H)-yl)methanone]
- activity / subunit selectivity in words [7]: active

SMILES: CCOc1ccc(OCC2c3ccc(OC(C)C)cc3CCN2C(=O)c2cccc(C)c2)cc1 (stereo not shown) [Compound 100, (1-((4-Ethoxyphenoxy)methyl)-6-isopropoxy-3,4-dihydroisoquinolin-2(1H)-yl)(m-tolyl)methanone]
- activity / subunit selectivity in words [7]: inactive

SMILES: CCOc1ccc(OCC2c3ccc(OC(C)C)cc3CCN2C(=O)c2cc(Cl)cc(Cl)c2)cc1 (stereo not shown) [Compound 109]
- solubility [11]: < 30 µM

SMILES: CCOc1ccc(OCC2c3ccc(OC(C)C)cc3CCN2C(=O)c2ccc(F)c(Cl)c2)cc1 (stereo not shown) [Compound 108, (3-Chloro-4-fluorophenyl)(1-((4-ethoxyphenoxy)methyl)-6-isopropoxy-3,4-dihydroisoquinolin-2(1H)-yl)methanone]
- activity / subunit selectivity in words [7]: active

SMILES: CCOc1ccc(OCC2c3ccc(OC(C)C)cc3CCN2C(=O)c2ccc(Cl)c(Cl)c2)cc1 (stereo not shown) [Compound 107, (3,4-Dichlorophenyl)(1-((4-ethoxyphenoxy)methyl)-6-isopropoxy-3,4-dihydroisoquinolin-2(1H)-yl)methanone]
- activity / subunit selectivity in words [7]: active
- solubility [11]: < 10 µM

SMILES: CC(C)Oc1ccc(OCC2c3ccc(OC(C)C)cc3CCN2C(=O)c2cccc(Cl)c2)cc1 (stereo not shown) [Compound 113, (3-Chlorophenyl)(6-isopropoxy-1-((4-isopropoxyphenoxy)methyl)-3,4-dihydroisoquinolin-2(1H)-yl)methanone]
- activity / subunit selectivity in words [7]: moderately GluN2B-selective

SMILES: CCOc1ccc(OCC2c3ccc(OC(C)C)cc3CCN2C(=O)c2ccccc2)cc1 (stereo not shown) [Compound 95, (1-((4-Ethoxyphenoxy)methyl)-6-isopropoxy-3,4-dihydroisoquinolin-2(1H)-yl)(phenyl)methanone]
- activity / subunit selectivity in words [7]: inactive at all subunits
